Data on ten compounds can be found in PubChem BioAssay (NCI).

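Step 1: Grow cells in 96-well plates. Step 2: Expose to compound for 48 hours at 5 concentrations. Step 3: Interpolate endpoints linearly; if unreached, use highest concentration. GI50 is the concentration that inhibits growth by half. TGI denotes the concentration required for complete inhibition of growth.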

Among the test systems are A498 renal; LXFL 529 NSCLC; SF-539 CNS; SW-620 colon; U251 CNS; UACC-62 melanoma; K-562 leukemia; MDA-MB-231 breast; NCI/ADR-RES ovarian; HOP-18 NSCLC.
Assay in all cases: NCI-60 cell line screen, 48 h

Regarding `COC(=O)c1nc(C(=O)OC)c2c([nH]c3ccccc32)c1C(=O)OC`, the TGI with A498 renal, with LXFL 529 NSCLC, in the experiment on SF-539 CNS, in the experiment with SW-620 colon, in the experiment on U251 CNS and in the experiment on UACC-62 melanoma was > 100 µM in each case.
Turning to `C/C(=N\O)c1cccc(Nc2cc(-c3ccccc3)nc3c(O)cccc23)c1`, the GI50 is 3.31 µM with A498 renal; 0.581 µM in the experiment on K-562 leukemia; 2.34 µM in the experiment with MDA-MB-231 breast; 1.37 µM with NCI/ADR-RES ovarian; 2.2 µM in the experiment with SF-539 CNS; 0.751 µM in the experiment on SW-620 colon. The GI50 with U251 CNS is 2.35 µM; in the experiment on UACC-62 melanoma, 1.64 µM. The TGI is 18.1 µM with A498 renal; > 53.5 µM in the experiment on K-562 leukemia; 13.3 µM in the experiment with MDA-MB-231 breast; > 23.5 µM with NCI/ADR-RES ovarian; 9.85 µM with SF-539 CNS; > 42.9 µM in the experiment on SW-620 colon. Moreover, the figures for the TGI with U251 CNS and in the experiment with UACC-62 melanoma were 15.8 µM and 16.8 µM, respectively.
`COc1ncc(-c2ccc3nccc(C#CCN4CCN(S(C)(=O)=O)CC4)c3c2)cc1NS(=O)(=O)c1ccc(F)cc1F`: the GI50 in the experiment with A498 renal was 0.048 µM; in the experiment with K-562 leukemia, 0.665 µM; in the experiment on MDA-MB-231 breast, 0.367 µM; with NCI/ADR-RES ovarian, 0.465 µM; in the experiment on SF-539 CNS, 0.0398 µM; in the experiment on SW-620 colon it was 0.205 µM. Further, the results for the GI50 in the experiment with U251 CNS and in the experiment with UACC-62 melanoma were 0.211 µM and 0.0342 µM, respectively. In addition, the TGI was 0.309 µM with A498 renal; > 41.3 µM in the experiment with K-562 leukemia; 17.2 µM in the experiment with MDA-MB-231 breast; 12.4 µM in the experiment on NCI/ADR-RES ovarian; 0.272 µM in the experiment with SF-539 CNS; 2.23 µM with SW-620 colon. The results for the TGI in the experiment with U251 CNS and in the experiment on UACC-62 melanoma were 1.75 µM and 0.307 µM, respectively.
`O=[N+]([O-])/C=C/c1cc2ccc3ccccc3c2[nH]1`: the TGI in the experiment with A498 renal worked out at 3.16 µM; in the experiment with K-562 leukemia, 18.2 µM; with MDA-MB-231 breast it was 3.2 µM; in the experiment with NCI/ADR-RES ovarian, 6.87 µM; in the experiment with SF-539 CNS, 4.99 µM; with SW-620 colon, 4.87 µM. Moreover, the TGI in the experiment on U251 CNS is 2.95 µM; in the experiment with UACC-62 melanoma it was 3.51 µM.
For the compound `O=C1C(=C([O-])c2ccccc2)C(=O)c2ccccc21.O=C1C(=C([O-])c2ccccc2)C(=O)c2ccccc21.[Co+2]`, the GI50 in the experiment with A498 renal was > 100 µM; with HOP-18 NSCLC, 54.4 µM; in the experiment with K-562 leukemia it was > 100 µM; with SF-539 CNS it was > 100 µM; with SW-620 colon, > 100 µM; in the experiment with U251 CNS, > 100 µM. Further, the GI50 in the experiment on UACC-62 melanoma is 57.1 µM. Moreover, the TGI in the experiment with A498 renal, in the experiment on HOP-18 NSCLC, with K-562 leukemia, in the experiment on SF-539 CNS, in the experiment on SW-620 colon and in the experiment with U251 CNS was > 100 µM throughout. For the same compound, in the experiment with UACC-62 melanoma, the TGI is > 100 µM.
Regarding `C=C(COC(C)=O)CC(/C=C(\C)CC/C=C(\C)CO)OC(C)=O` (stereo unspecified), the TGI with A498 renal, in the experiment on K-562 leukemia, in the experiment with LXFL 529 NSCLC, with SF-539 CNS, in the experiment on SW-620 colon and in the experiment with U251 CNS was > 100 µM each time. In the experiment with UACC-62 melanoma, the TGI was > 100 µM.
Consider `Brc1ccc(Nc2nc3ccccc3nc2Nc2ccc(Br)cc2)cc1`, for which the GI50 in the experiment on A498 renal was 0.0513 µM; with K-562 leukemia it was 0.786 µM; in the experiment with MDA-MB-231 breast, 1.46 µM; with NCI/ADR-RES ovarian, 1.62 µM; in the experiment on SF-539 CNS, 1.51 µM; with SW-620 colon it was 2.78 µM. Further, the GI50 in the experiment with U251 CNS was 0.429 µM; with UACC-62 melanoma, 1.94 µM. Besides, the TGI was determined as 2.75 µM with A498 renal; 11.6 µM in the experiment on K-562 leukemia; 3.01 µM in the experiment on MDA-MB-231 breast; 10.5 µM with NCI/ADR-RES ovarian; 3.56 µM in the experiment with SF-539 CNS; 10.5 µM in the experiment on SW-620 colon. The TGI in the experiment with U251 CNS stood at 2.22 µM; with UACC-62 melanoma it was 5.37 µM.
On to `COc1cc2c3c(n(CCCN4CCCNCC4)c(=O)c2cc1OC)-c1cc2c(cc1C3=O)OCO2`, for which the GI50 was 1.16 µM in the experiment with A498 renal; 0.476 µM with K-562 leukemia; 1.06 µM with MDA-MB-231 breast; 0.493 µM in the experiment with NCI/ADR-RES ovarian; 0.29 µM in the experiment on SF-539 CNS; 0.267 µM in the experiment with SW-620 colon. In addition, the GI50 was 0.181 µM in the experiment on U251 CNS and 0.515 µM with UACC-62 melanoma. In addition, the TGI came to 13.5 µM in the experiment with A498 renal; 18.5 µM in the experiment on K-562 leukemia; 3.5 µM in the experiment on MDA-MB-231 breast; 6.69 µM in the experiment on NCI/ADR-RES ovarian; 1.37 µM in the experiment with SF-539 CNS; 12 µM in the experiment on SW-620 colon. The TGI in the experiment with U251 CNS worked out at 2.91 µM; in the experiment with UACC-62 melanoma it was 6.04 µM.
As to `O=c1[nH]c(F)nc2c1ncn2C1OC(CO)C(O)C1O` (stereo unspecified), the GI50 with A498 renal was > 100 µM; with K-562 leukemia it was > 100 µM; in the experiment with MDA-MB-231 breast it was > 100 µM; with NCI/ADR-RES ovarian, > 100 µM; with SF-539 CNS, 23.9 µM; in the experiment on SW-620 colon it was > 100 µM. The GI50 in the experiment on U251 CNS and in the experiment with UACC-62 melanoma was > 100 µM in each case. For the same compound, the TGI was > 100 µM in the experiment on A498 renal; > 100 µM in the experiment with K-562 leukemia; > 100 µM with MDA-MB-231 breast; > 100 µM in the experiment with NCI/ADR-RES ovarian; 80.3 µM with SF-539 CNS; > 100 µM in the experiment on SW-620 colon. In addition, the TGI with U251 CNS and with UACC-62 melanoma was > 100 µM each time.
For the compound `CCN(CC)CC(O)COc1c(Br)c(Br)c(Br)c2c1OC(C)(C)C2` (stereo unspecified), the GI50 with A498 renal was 4.44 µM; in the experiment on K-562 leukemia, 1.73 µM; in the experiment on MDA-MB-231 breast, 2.44 µM; in the experiment with NCI/ADR-RES ovarian, 7.69 µM; in the experiment with SF-539 CNS it was 4.34 µM; in the experiment on SW-620 colon it was 2.26 µM. Further, the GI50 is 4.48 µM with U251 CNS and 1.9 µM in the experiment on UACC-62 melanoma. In addition, the TGI with A498 renal was 17.3 µM; in the experiment on K-562 leukemia it was 3.58 µM; with MDA-MB-231 breast, 6.08 µM; in the experiment with NCI/ADR-RES ovarian, 25.5 µM; with SF-539 CNS, 16.4 µM; with SW-620 colon it was 4.92 µM. For the same compound, the TGI in the experiment with U251 CNS worked out at 14.8 µM; in the experiment with UACC-62 melanoma it was 3.47 µM.
